In US20170151204A1 (priority 2011, published 2017):
Entries after “also recorded” stand apart in the source; their conditions may differ.

Columns and labels:
[1] = system: mouse embryogenic fibroblasts (MEF); format: cell-based; settings: uninfected MEF, 6 hours, NacMDP 0.1, 1 and 10 μg/ml, LTB4 100 nM (FIG. 37)
IAV-infected MEF = format: cell-based, mouse
IPS-1 = assay: IPS-1-dependent promoter activation assay (luciferase) in BLT1-expressing HEK-293T cells; format: cell-based; settings: IPS-1-expressing vector
[2] = system: mouse embryonic fibroblasts (MEFs); assay: IFNβ secretion by wild type mouse embryonic fibroblasts; format: cell-based; settings: MEFs from wild type mice, LTB4 alone or with Sendai virus (FIG. 36)
human neutrophils [3] = assay: TLR mRNA expression by human neutrophils (RT-PCR); format: cell-based; settings: LTB4 100 nM or 1 μM, two hours
Method: Peripheral blood neutrophils or peripheral blood mononuclear cells were isolated from healthy donors and were purified by centrifugation over Ficoll™ separation medium gradient as already described (Larochelle B, Blood. 1998;92:291-299). Human neutrophils (2×10^6) were resuspended in culture medium and stimulated with a placebo solution (0.45% w/v NaCl containing 0.25% w/v dextrose, NS) or LTB4 (100 nM or 1 μM in placebo solution) for two hours. Following stimulation, total RNA was extracted and RT-PCR was performed using specific primers for human TLR2 (FIG. 1) and TLR7-9 (FIG. 3).

[4] = system: Influenza A/PR/8/34 H1N1 (IAV); format: cell-based; settings: MEF, IAV 0.1 m.o.i., 24 hours, LTB4 100 nM, NacMDP 0.1 μg/ml (FIG. 39)
RIG-I = assay: RIG-I-dependent promoter activation assay (luciferase) in BLT1-expressing HEK-293T cells; format: cell-based; settings: RIG-I-expressing vector
[5] = system: Influenza A/PR/8/34 H1N1 (IAV); assay: IAV-infected mice: lung viral load, IL-6 and histology; format: in vivo; settings: 50 pfu IAV intranasally; iv. daily for three days, LTB4 1 μg/kg, NacMDP 2 mg/kg; four days post-infection (FIG. 40)
Method: In FIG. 39, MEFs were generated and plated as described in Example VII. Cells were infected with IAV (0.1 m.o.i.) alone (−), LTB4 alone (100 nM) or with a combination of LTB4 and NacMDP (0.1 μg/ml) for 24 hours. Following infection, cell culture supernatants were harvested and assayed for viral load determination by standard plaque assay in MDCK cells. For in vivo assessment of the antiviral activity of LTB4 and NacMDP, 4-6 weeks old C57131/6 female mice (n=4/group) were infected intranasally (in.) with 50 plaque-forming units (pfu) of IAV (FIG. 40). Starting at day one post-infection, mice were treated daily for three days with either saline, LTB4 alone (1 μg/kg) or with a combination of LTB4 and NacMDP (2 mg/kg), via the intravenous (iv.) route. Four days post-infection, animals were sacrificed and viral loads were determined from triturated lungs by standard plaque assay in MDCK cells. […] In FIG. 39, * p≦0.05. […]
To further investigate the in vivo consequences associated with the treatment of IAV-infected mice with a combination of LTB4 and the NOD2 agonist NacMDP, 4-6 weeks old C57131/6 female mice (n=4/group) were infected as described in Example IX and treated with either saline or a combination of LTB4 and NacMDP also as described. In FIG. 41, four-day infected animals were sacrificed and IL-6 titers were determined from triturated lungs by ELISA. […]

human neutrophils [6] = assay: TLR9 protein expression by human neutrophils (flow cytometry); format: cell-based
Method: (§1) In FIG. 4A, cells were left untreated (dotted line) or were stimulated with LTB4 (100 nM) for 15, 30, 60 or 120 min. Background cellular autofluorescence is represented by shaded histogram. Cells were then fixed in paraformaldehyde, permeabilized in methanol, and TLR9 expression was assessed by flow cytometry. In FIG. 4B, cells were pre-treated for 30 min with the high affinity LTB4 receptor antagonist U75302 (10 μM) prior to stimulation with LTB4 for 60 min. Cells were then fixed in paraformaldehyde, permeabilized in methanol, and TLR9 expression was assessed by flow cytometry. In FIGS. 4C-D, cells were stimulated with LTB4 or leukotrienes C4 (LTC4), leukotriene D4 (LTD4), the complement protein C5a or IL-8 for 60 min. Cells were then fixed in paraformaldehyde, permeabilized in methanol, and TLR9 expression was assessed by flow cytometry. In FIG. 4E, neutrophils were pretreated with LTB4 for 60 min. Following this pretreatment, neutrophils were incubated in the presence of CpG-ODN 2216 sequence (5′-G*G*GGGACGATCGTCG*G* G*G*G*G*-3′) (SEQ ID NO:1) that were tagged with cyanine-3 (Cy3) fluorochrome. After an incubation for 4 h with Cy3-CpG-ODN sequences, neutrophils were extensively washed with phosphate buffer and Cy3 expression (corresponding to the degree in CpG-ODN binding on human neutrophils) was assessed by flow cytometry. […]. […]

human neutrophils [7] = assay: Cy3-CpG-ODN binding assay on human neutrophils (flow cytometry); format: cell-based; settings: LTB4 pretreatment 60 min, then Cy3-CpG-ODN 2216 for 4 h; with or without inhibitory CpG-ODN (FIG. 4E-F)
Method: as §1

human neutrophils [8] = assay: TLR2 protein expression on human neutrophils (flow cytometry); format: cell-based; settings: LTB4 100 nM, 15-120 min, flow cytometry (FIG. 2)
Method: In FIG. 2A, cells were left untreated (1) or were stimulated with LTB4 (100 nM) for 15 (2), 30 (3), 60 (4) or 120 min (5). Cells were then fixed in paraformaldehyde and TLR2 expression was assessed by flow cytometry. Background cellular autofluorescence is represented by the dotted line (6).

SMILES	IL-6 secretion [1]	IL-6 secretion (IAV-infected MEF)	NF-κB promoter activity (luciferase) (IPS-1; LTB4 stimulation 24 h (FIG. 30))	IFN-β promoter activity (luciferase) (IPS-1; LTB4 stimulation 24 h (FIG. 31))	secretion of IFNβ [2]	expression of TLR2 mRNA (human neutrophils [3]; RT-PCR (FIG. 1))	mRNA expression of TLR7-9 (human neutrophils [3]; RT-PCR (FIG. 3))	viral load (in vitro) [4]	NF-κB promoter activity (luciferase) (RIG-I; LTB4 stimulation 24 h (FIG. 28))	IFN-β promoter activity (luciferase) (RIG-I; LTB4 stimulation 24 h (FIG. 29))	viral load in lungs (in vivo) [5]	TLR9 expression compared to LTC4, LTD4, C5a and IL-8 (human neutrophils [6]; 60 min stimulation (FIG. 4C-D))	TLR9 expression (protein) (human neutrophils [6]; LTB4 100 nM, 15, 30, 60 or 120 min, with or without BLT1 antagonist U75302 10 μM (FIG. 4A-B))	CpG-ODN binding on human neutrophils (Cy3 expression) (human neutrophils [7])	TLR2 expression (protein) (human neutrophils [8])
CC(=O)N[C@H]1C(O)O[C@H](CO)[C@@H](O)[C@@H]1O[C@H](C)C(=O)N[C@@H](C)C(=O)N[C@H](CCC(=O)O)C(N)=O (some centres unmarked) [NacMDP, N-acetyl muramyl dipeptide, reference compound]	do not induce significant IL-6 secretion compared to background	significantly enhance IL-6 secretion	–	–	–	–	–	–	–	–	–	–	–	–	–
CCCCC/C=C\C[C@@H](O)/C=C/C=C/C=C\[C@@H](O)CCCC(=O)O [LTB4, 5S,12R-6,8,10,14(Z,E,E,Z)-eicosatetraenoic acid]	do not induce significant IL-6 secretion compared to background	significantly enhance IL-6 secretion	induces NF-κB as well as IFN-β promoter activity	induces NF-κB as well as IFN-β promoter activity	induces secretion of IFNβ	stimulated by LTB4 in a dose-dependent form	stimulated in a dose-dependent form	significant decrease in viral load	enhances NF-κB as well as IFN-β promoter activity	enhances NF-κB as well as IFN-β promoter activity	significant decrease in viral load	potent inducer of TLR9 expression	induces TLR9 expression on human neutrophils in a time-dependent manner; also recorded: upregulated TLR2 and TLR9 protein expression	enhances CpG-ODN binding on human neutrophils in a TLR9-dependent manner	enhanced TLR2 expression; also recorded: upregulated TLR2 and TLR9 protein expression
